Assay results as given in PubChem BioAssay AID1259407 (Chemical Carcinogenesis Research Information System (CCRIS), 2018).
The source made the active and inactive calls. How the calls were made is not given here.

Tested on: CCRIS mutagenicity, Ames/micronucleus/aberration tests
Assay: CCRIS mutagenicity studies

## COc1cc2c(c3oc(=O)c4c(c13)CCC4=O)[C@@H]1C=CO[C@@H]1O2
End Point: IN VITRO MICRONUCLEUS, Test System: AHH-1 CELLS, Metabolic Activation: NONE
  mutagenic call: active; positive
End Point: IN VITRO MICRONUCLEUS, Test System: MCL-5 CELLS, Metabolic Activation: NONE
  mutagenic call: active; positive
Test System: AMES SALMONELLA TYPHIMURIUM, Strain/Indicator: TA98, Metabolic Activation: EPITHELIAL CELL-MEDIATED, AROCLOR 1254, Method: PREINCUBATION
  mutagenic call: active; positive
Test System: AMES SALMONELLA TYPHIMURIUM, Strain/Indicator: TA98, Metabolic Activation: EPITHELIAL CELL-MEDIATED, NADPH, Method: PREINCUBATION
  mutagenic call: active; positive
Test System: AMES SALMONELLA TYPHIMURIUM, Strain/Indicator: TA98, Metabolic Activation: EPITHELIAL CELL-MEDIATED, Method: PREINCUBATION
  mutagenic call: active; positive
Test System: AMES SALMONELLA TYPHIMURIUM, Strain/Indicator: TA98, Metabolic Activation: HAMSTER, LIVER, S-9, Method: MICROSUSPENSION
  mutagenic call: active; positive
Test System: AMES SALMONELLA TYPHIMURIUM, Strain/Indicator: TA98, Metabolic Activation: HAMSTER, LUNG, S-9, Method: MICROSUSPENSION
  mutagenic call: inactive; negative
Test System: AMES SALMONELLA TYPHIMURIUM, Strain/Indicator: TA98, Metabolic Activation: HAMSTER, TRACHEA, S-9, Method: MICROSUSPENSION
  mutagenic call: active; positive
Test System: AMES SALMONELLA TYPHIMURIUM, Strain/Indicator: TA98, Metabolic Activation: HUMAN LIVER, S-9, Method: STANDARD PLATE
  mutagenic call: active; positive
Test System: AMES SALMONELLA TYPHIMURIUM, Strain/Indicator: TA98, Metabolic Activation: HUMAN, LIVER, S-9, Method: STANDARD PLATE
  mutagenic call: active; positive
Test System: AMES SALMONELLA TYPHIMURIUM, Strain/Indicator: TA98, Metabolic Activation: KUPFFER CELL-MEDIATED, AROCLOR 1254, Method: PREINCUBATION
  mutagenic call: active; positive
Test System: AMES SALMONELLA TYPHIMURIUM, Strain/Indicator: TA98, Metabolic Activation: KUPFFER CELL-MEDIATED, NADPH, Method: PREINCUBATION
  mutagenic call: active; positive
Test System: AMES SALMONELLA TYPHIMURIUM, Strain/Indicator: TA98, Metabolic Activation: KUPFFER CELL-MEDIATED, Method: PREINCUBATION
  mutagenic call: active; positive
Test System: AMES SALMONELLA TYPHIMURIUM, Strain/Indicator: TA98, Metabolic Activation: NONE, Method: MICROSUSPENSION
  mutagenic call: active; positive
Test System: AMES SALMONELLA TYPHIMURIUM, Strain/Indicator: TA98, Metabolic Activation: NONE, Method: PREINCUBATION
  mutagenic call: inactive; negative
Test System: AMES SALMONELLA TYPHIMURIUM, Strain/Indicator: TA98, Metabolic Activation: NONE, Method: STANDARD PLATE
  mutagenic call: active; positive
Test System: AMES SALMONELLA TYPHIMURIUM, Strain/Indicator: TA98, Metabolic Activation: PARENCHYMAL CELL-MEDIATED, AROCLOR 1254, Method: PREINCUBATION
  mutagenic call: active; positive
Test System: AMES SALMONELLA TYPHIMURIUM, Strain/Indicator: TA98, Metabolic Activation: PARENCHYMAL CELL-MEDIATED, NADPH, Method: PREINCUBATION
  mutagenic call: active; positive
Test System: AMES SALMONELLA TYPHIMURIUM, Strain/Indicator: TA98, Metabolic Activation: PARENCHYMAL CELL-MEDIATED, Method: PREINCUBATION
  mutagenic call: inactive; negative
Test System: AMES SALMONELLA TYPHIMURIUM, Strain/Indicator: TA98, Metabolic Activation: RABBIT, LIVER, S-9, Method: MICROSUSPENSION
  mutagenic call: active; positive
Test System: AMES SALMONELLA TYPHIMURIUM, Strain/Indicator: TA98, Metabolic Activation: RABBIT, LUNG, S-9, Method: MICROSUSPENSION
  mutagenic call: active; positive
Test System: AMES SALMONELLA TYPHIMURIUM, Strain/Indicator: TA98, Metabolic Activation: RABBIT, TRACHEA, S-9, Method: MICROSUSPENSION
  mutagenic call: active; positive
Test System: AMES SALMONELLA TYPHIMURIUM, Strain/Indicator: TA98, Metabolic Activation: RAT LIVER S-9, DELOR 103, Method: STANDARD PLATE
  mutagenic call: active; positive
Test System: AMES SALMONELLA TYPHIMURIUM, Strain/Indicator: TA98, Metabolic Activation: RAT LIVER S-9, DELOREM 103, Method: STANDARD PLATE
  mutagenic call: active; positive
Test System: AMES SALMONELLA TYPHIMURIUM, Strain/Indicator: TA98, Metabolic Activation: RAT, LIVER, MICROSOMES, PHENOBARBITAL, Method: STANDARD PLATE
  mutagenic call: active; positive
Test System: AMES SALMONELLA TYPHIMURIUM, Strain/Indicator: TA98, Metabolic Activation: RAT, LIVER, S-9, ACRYLAMIDE, Method: STANDARD PLATE
  mutagenic call: active; positive
Test System: AMES SALMONELLA TYPHIMURIUM, Strain/Indicator: TA98, Metabolic Activation: RAT, LIVER, S-9, AROCLOR 1254, Method: PREINCUBATION
  mutagenic call: active; positive
Test System: AMES SALMONELLA TYPHIMURIUM, Strain/Indicator: TA98, Metabolic Activation: RAT, LIVER, S-9, AROCLOR 1254, Method: STANDARD PLATE
  mutagenic call: active; positive
Test System: AMES SALMONELLA TYPHIMURIUM, Strain/Indicator: TA98, Metabolic Activation: RAT, LIVER, S-9, PHENOBARBITAL, Method: STANDARD PLATE
  mutagenic call: active; positive
Test System: AMES SALMONELLA TYPHIMURIUM, Strain/Indicator: TA98, Metabolic Activation: RAT, LIVER, S-9, Method: MICROSUSPENSION
  mutagenic call: active; positive
Test System: AMES SALMONELLA TYPHIMURIUM, Strain/Indicator: TA98, Metabolic Activation: RAT, LUNG, S-9, Method: MICROSUSPENSION
  mutagenic call: inactive; negative
Test System: AMES SALMONELLA TYPHIMURIUM, Strain/Indicator: TA98, Metabolic Activation: RAT, TRACHEA, S-9, Method: MICROSUSPENSION
  mutagenic call: inactive; negative
Test System: AMES SALMONELLA TYPHIMURIUM, Strain/Indicator: TA100, Metabolic Activation: HUMAN LIVER, S-9, Method: STANDARD PLATE
  mutagenic call: active; positive
Test System: AMES SALMONELLA TYPHIMURIUM, Strain/Indicator: TA100, Metabolic Activation: HUMAN, LIVER, S-9, Method: STANDARD PLATE
  mutagenic call: active; positive
Test System: AMES SALMONELLA TYPHIMURIUM, Strain/Indicator: TA100, Metabolic Activation: HUMAN, PLACENTAL MICROSOMES, Method: PREINCUBATION
  mutagenic call: active; positive
